In patent publication US20230114854A1, “CHIMERIC ANTIGEN RECEPTOR TARGETING B-CELL MATURATION ANTIGEN AND USE THEREOF” (CELLGENTEK CO., LTD., priority 2020, published 2023):
Where “and” joins values, the source holds several entries; their conditions need not be identical. Equal values may be shown once.

B1: BCMA-CAR2 (protein)
chain: EVQLLESGGGLVQPGGSLRLSCAASGFTFSNYGVHWVRQAPGKGLEWVSYISYSGGTYYNPSLKSRFTISRDNSKNTLYLQMNSLRAEDTAVYYCARDSDDFGFDYWGQGTLVTVSSGSTSGSGKPSGEGSTKGQSVLTQPPSASGTPGQRVTISCQGDSLRSYYVNWYQQLPGTAPKLLIYDHSKRPTGVPDRFSGSKSGTSASLAISGLRSEDEADYYCQSYDSSTVVFGGGTKLTVLGALSNSIMYFSHFVPVFLPAKPTTTPAPRPPTPAPTIASQPLSLRPEASRPAAGGAVHTRGLDKPFWVLVVVGGVLACYSLLVTVAFIIFWVRSKRSRLLHSDYMNMTPRRPGPTRKHYQPYAPPRDFAAYRSGGGGSKRGRKKLLYIFKQPFMRPVQTTQEEDGCSCRFPEEEEGGCELGGGGSRVKFSRSADAPAYQQGQNQLYNELNLGRREEYDVLDKRRGRDPEMGGKPRRKNPQEGLYNELQKDKMAEAYSEIGMKGERRRGKGHDGLYQGLSTATKDTYDALHMQALPPR
B2: BCMA-CAR3 (protein)
chain: EVQLLESGGGLVQPGGSLRLSCAASGFTFSDYGLSWVRQAPGKGLEWVSLIDSSGSSTFYADSVKGRFTISRDNSKNTLYLQMNSLRAEDTAVYYCAKEHGLFDSWGQGTLVTVSSGSTSGSGKPSGEGSTKGEIVLTQSPGTLSLSPGERATLSCKASQDIDDDINWYQQKPGQAPRLLIYDASLRATGIPDRFSGSGSGTDFTLTISRLEPEDFAVYYCQQSLRTPITFGQGTKLEIKRALSNSIMYFSHFVPVFLPAKPTTTPAPRPPTPAPTIASQPLSLRPEASRPAAGGAVHTRGLDKPFWVLVVVGGVLACYSLLVTVAFIIFWVRSKRSRLLHSDYMNMTPRRPGPTRKHYQPYAPPRDFAAYRSGGGGSKRGRKKLLYIFKQPFMRPVQTTQEEDGCSCRFPEEEEGGCELGGGGSRVKFSRSADAPAYQQGQNQLYNELNLGRREEYDVLDKRRGRDPEMGGKPRRKNPQEGLYNELQKDKMAEAYSEIGMKGERRRGKGHDGLYQGLSTATKDTYDALHMQALPPR
B3: BCMA-CAR4 (protein)
chain: EVQLLESGGGLVQPGGSLRLSCAASGFTFSGHYWSWVRQAPGKGLEWVSTVSGSGGDTFYADSVKGRFTISRDNSKNTLYLQMNSLRAEDTAVYYCARGHSVMDVWGQGTLVTVSSGSTSGSGKPSGEGSTKGEIVLTQSPGTLSLSPGERATLSCRASQGIDSYVAWYQQKPGQAPRLLIYDASLRATGIPDRFSGSGSGTDFTLTISRLEPEDFAVYYCQQYNSWPITFGQGTKLEIKRALSNSIMYFSHFVPVFLPAKPTTTPAPRPPTPAPTIASQPLSLRPEASRPAAGGAVHTRGLDKPFWVLVVVGGVLACYSLLVTVAFIIFWVRSKRSRLLHSDYMNMTPRRPGPTRKHYQPYAPPRDFAAYRSGGGGSKRGRKKLLYIFKQPFMRPVQTTQEEDGCSCRFPEEEEGGCELGGGGSRVKFSRSADAPAYQQGQNQLYNELNLGRREEYDVLDKRRGRDPEMGGKPRRKNPQEGLYNELQKDKMAEAYSEIGMKGERRRGKGHDGLYQGLSTATKDTYDALHMQALPPR

Experiments:
[1] = test system: multiple myeloma cell line H929 xenograft; details: for growth inhibition rate (GIR (%)) versus untreated group (Vehicle): Day 17, NK cells 1×10^7 cells i.v. ×3, Velcade and Darzalex 0.5 mg/kg i.p. ×5
Protocol: In a xenograft animal model using NOD.Cg-Prkdcscid Il2rgtm1Wj1/SzJ (NSG) mouse (Jackson Laboratory, Jax #00557 strain), the anticancer efficacy of BCMA-CAR NK cells expressing BCMA-CAR1 was evaluated.
After subcutaneous implantation of multiple myeloma cell line H929 with high BCMA expression, when the tumor size reached 150 mm^3 (10 days post implantation), 5 mice were randomly assigned to each group, and once every 5 days, BCMA-CAR NK cells or control NK cells (NKvec) were administered at a concentration of 1×10^7 cells via intravenous tail vein injection (i.v.) in a total of 3 administrations. Here, a proteasome inhibitor, Velcade® (ingredient name: Bortezomib) and an antibody medication, Darzalex® (ingredient name: Daratumumab) being used as treatment medications for multiple myeloma patients were used as control drugs, and Velcade® (Vel) and Darzalex® (Dara) were each administered at a concentration of 0.5 mg/kg via intraperitoneal (i.p.) route, once every 3-4 days, in a total of 5 administrations.

[2] = target: BCMA expressed on multiple myeloma cells (H929, MM1.R, OPM-2) (UniProt Q02223); test: cell-based or functional assay
UniProt Q02223, sequence (Q02223 whole entry): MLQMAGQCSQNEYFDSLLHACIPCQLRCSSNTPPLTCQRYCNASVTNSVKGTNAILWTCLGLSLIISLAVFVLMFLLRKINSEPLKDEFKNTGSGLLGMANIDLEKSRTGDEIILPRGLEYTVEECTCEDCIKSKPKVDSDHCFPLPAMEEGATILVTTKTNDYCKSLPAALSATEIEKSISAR

| Molecule | growth inhibition rate (GIR (%)) versus untreated group (Vehicle) [1] [%] | toxicity (body weight) ([1]; mouse, in vivo) | cytolytic activity toward multiple myeloma cells (H929, MM1.R, OPM-2), versus control NK cells (NKvec) [2] |
| --- | --- | --- | --- |
| CC(C)C[C@H](NC(=O)[C@H](Cc1ccccc1)NC(=O)c1cnccn1)B(O)O [Velcade, Bortezomib] | 39 | toxicity i.e., a decrease in body weight |  |
| Daratumumab [Darzalex] | 23 |  |  |
| B1 |  |  | 3 to 4 times and > 4 times |
| B2 |  |  | 3 to 4 times and > 4 times |
| B3 |  |  | 3 to 4 times and > 4 times |
